# Data reported in patent publication US20250051762A1, “PLATFORM USING DNA-ENCODED SMALL MOLECULE LIBRARIES AND RNA SELECTION TO DESIGN SMALL MOLECULES THAT TARGET RNA” (University of Florida Research Foundation, Incorporated, priority 2021, published 2025).
# Tests used:
# mutant pri-miR-27a = test: Competitive MST binding assay with unlabeled mutated pri-miR-27a; set-up: species or system human; conditions: two 5′GAG/3′CCC loops mutated to base pairs
# Procedure: To measure the affinity of 9 for the 5′GAG/3′CCC loop in the context of pri-miR-27a, a competitive binding assay was used with a constant concentration of compound (100 nM) and the Cy5-labeled model of pri-miR-27a's Drosha site, and varying concentrations of unlabeled miR-27a precursor as reported by miRBase. (35) That is, the miR-27a precursor competes with the Cy5-labeled model of pri-miR-27a's Drosha site for binding 9. […] Thus, the compounds identified by using DEL-2DCS can bind avidly to biologically relevant RNA targets identified by Inforna.
# For competitive binding assays, both WT and mutant pri-miR-27a RNAs were transcribed as previously described (see Table S6 for sequences). (11) The RNA was purified by gel electrophoresis and folded in 1× Binding Buffer at final concentration of 750 nM by heating at 60° C. for 5 min and then slowly cooling to room temperature. […] The resulting data were analyzed by SigmaPlot and fitted by Equation 2 to yield the competitive dissociation constant (Kd competitive).
# where F is the concentration of fluorescence-labeled RNA; unbound and bound refers to the thermophoresis signal at completely unbound and bound state of RNA, respectively; c is the concentration of the compound; f (c) is the thermophoresis signal at compound concentration of c; Kd is the dissociation constant. […]
# MDA-MB-231 cells = test: Global proteomics profiling by LC-MS/MS in MDA-MB-231 cells; assay type: cell-based, human
# Procedure: Global proteomics profiling using LC-MS/MS: Treated cell pellets were resuspended in 1×PBS, lysed by sonication, and protein concentration was determined by using a Bradford assay (Bio-Rad). Samples (30 μg) were denatured in 6 M urea in 50 mM NH4HCO3, pH 8, reduced for 30 min with 10 mM TCEP, and alkylated for 30 min in the dark with 25 mM iodoacetamide. Samples were diluted to 2 M urea with 50 mM NH4HCO3, pH 8, and the proteins were digested with trypsin (1 μL of 0.5 μg/μL) in the presence of 1 mM CaCl2) for 12 h at 37° C. The samples were acidified by adding acetic acid to a final concentration of 5% (v/v). After desalting the samples over a self-packed C18 spin column, they were dried and analyzed by LC-MS/MS (see below). The resulting MS data were processed with MaxQuant as described below.
# LC-MS/MS analysis: Peptides were dissolved in water containing 0.1% formic acid (FA) and analyzed using an EASY-nLC 1200 nano-UHPLC connected to a Q Exactive HF-X Quadrupole-Orbitrap mass spectrometer (Thermo Scientific). A 50 cm long, 75 μm i.d. chromatography column packed with ReproSil-Pur 120 C18-AQ 2.4 μm beads (Dr. Maisch GmbH) and capped by a 5 μm tip was used. Water with 0.1% FA in water (Buffer A) and 90% acetonitrile (MeCN): 10% water with 0.1% FA (Buffer B) were used as liquid chromatography solvents. A flow rate of 300 nL/min over a 240 min linear gradient (5-35% Buffer B) at 65° C. was used to clute peptides into the mass spectrometer. Data-dependent acquisition (top-20, NCE 28, R=7,500) after full MS scan (R=60,000, m/z 400-1,300) with a dynamic exclusion of 10 seconds was performed. Peptide match to prefer and isotope exclusion were selected and enabled.
# MaxQuant analysis: The MaxQuant software (13) (V1.6.1.0) was used to analyzed the MS data and searched against the human proteome (Uniprot) and a common list of contaminants (included in MaxQuant). Peptide search tolerance was set to 20 ppm for the first search and 10 ppm for the main search while 0.02 Da was used for the fragment mass tolerance. The false discovery rate (FDR) for peptides, proteins and sites identification was set to 1%. Peptide length was set to at least 6 amino acids and peptide re-quantification was enabled. Label-free quantification (MaxLFQ) and “match between runs” were activated. Number of peptides per protein was set to ≥2. Searched modifications were methionine oxidation (variable modification) and carbamidomethylation of cysteines (fixed modification).
# TargetScan analysis: TargetScanHuman v7.2 was used to predict downstream protein targets of miR-27a-3p (n=1421), miR-23a-3p (n=1342) and miR-24-3p (n=761) containing conserved sites, all proteins with a context score≤0 were included to the analysis per TargetScan recommendation. Approximately 15% of miR-27a-3p targets (220/1421), ˜18% of miR-23a-3p targets (247/1342), and ˜16% of miR-24-3p targets (122/761) were detectable in the global proteomics analysis. […] Targets of miR-23a-3p and miR-24-3p were used as comparison as the two miRNAs are expressed at similar levels as miR-27a-3p in MDA-MB-231 cells and are located in the same cluster. P values between distributions were calculated using a two-tailed Kolmogorov-Smirnov test.
# [1] = 100 nM, 3,127 detectable proteins, FDR <5%
# [2] = treated vs. vehicle, relative to all proteins
compound,measurement,setting,value
C#CCN(CC(N)=O)C(=O)C[C@H](Cc1c[nH]c2ccccc12)NC(=O)[C@@H]1C[C@H](NC(=O)Cn2c(=O)[nH]c3ccccc3c2=O)CN1 [Compound 9],binding (competitive),mutant pri-miR-27a,binding was abolished
same,number of proteins significantly downregulated,MDA-MB-231 cells; [1],five
same,number of proteins significantly upregulated,MDA-MB-231 cells; [1],15
same,upregulated proteins that are putative direct targets of miR-27a,"MDA-MB-231 cells; 100 nM, of the 15 upregulated, per TargetScan",Eleven
same,cumulative distribution of fold change of miR-23a-3p targets,MDA-MB-231 cells; [2],no significant change
same,cumulative distribution of fold change of miR-24-3p targets,MDA-MB-231 cells; [2],no significant change
same,cumulative distribution of fold change of miR-27a-3p targets,MDA-MB-231 cells; [2],significant upregulation
